What was measured:
[1] = Solubility in ethanol-based HFA 134a pMDI formulations; type: physicochemical
[2] = Preclinical pulmonary administration of sumatriptan, irritancy to the airways; type: in vivo
[3] = intranasal route (Duquesnoy et al 1998); cited from earlier work

solubility [1] | Structure (SMILES) | respiratory changes ([2]; 1.9 mg/kg) | respiratory changes ([2]; 9 mg/kg) | coefficient of variation for Tmax [3] [%]
low solubility | CNS(=O)(=O)Cc1ccc2[nH]cc(CCN(C)C)c2c1 [sumatriptan succinate] | – | – | –
– | CNS(=O)(=O)Cc1ccc2[nH]cc(CCN(C)C)c2c1 [sumatriptan] | not of degenerative nature | degeneration occurred | 62.8

From patent publication US20110077272A1, “PULMONARY FORMULATIONS OF TRIPTANS” (Vectura Limited, priority 2008, published 2011)
